Test results reported in patent US20130204033A1, “ANTIPROLIFERATIVE COMPOUNDS, CONJUGATES THEREOF, METHODS THEREFOR, AND USES THEREOF” (Medarex, Inc., priority 2009, published 2013).
Read-outs that look alike come from different tables or passages of the source.

Assays:
Assay type in all cases: cell-based, human
786-O = experiment: ATP luminescence proliferation assay, 786-O
Method: (§1) This example generally describes the procedures used to assay the antiproliferative activity of compounds of this invention or their conjugates. Human tumor cell lines were obtained from the American Type Culture Collection (ATCC), P.O. Box 1549, Manassas, Va. 20108, USA, and cultured according to instruction from the ATCC. Cells were seeded at 1.0×10^3 or 1.0×10^4 cells/well in 96-well plates for 3 h for ATP assays or ^3H thymidine assays, respectively. 1:3 serial dilutions of free (unconjugated) compounds or their conjugates were added to the wells. Plates were allowed to incubate for 24 to 72 h. The ^3H thymidine plates were pulsed with 1.0 μCi of ^3H-thymidine per well for the last 24 hours of the total incubation period, harvested, and read on a Top Count Scintillation Counter (Packard Instruments, Meriden, Conn.). ATP levels in the ATP plates were measured using the […]-GLO® Luminescent Cell Viability kit following the manufacturer's manual and read on a GLOMAX® 20/20 luminometer (both from Promega, Madison, Wis., USA). The EC50 values—the concentration at which an agent inhibits or reduces cell proliferation by 50% —were determined using PRISM™ software, version 4.0 (GraphPad Software, La Jolla, Calif., USA).
(§2) Using the ^3H thymidine or the ATP luminescence assay, or both, the activities of compounds of this invention were assayed against the following cancer cell lines: HCT-15 (colorectal cancer, multi-drug resistant (MDR)); Hep3B (liver cancer); LNCaP (prostate cancer, androgen receptor positive (AR^+)); MDA-MB-231 (breast cancer, estrogen receptor, progesterone receptor, and Her2 negative (triple negative)); A2058 (melanoma); U-87 MG (glioblastoma); NCI-H460 (NSCLC); A549 (NSCLC); HPAC (pancreatic cancer, primary); PC3 (prostate cancer, AR); BT474 (breast cancer, Her2 highly positive (Her2hi)); SKOV3 (ovarian cancer, Her2hi); 786-O (renal cancer); UO-31 (renal cancer, MDR); NCI-H740 (SCLC); DMS53 (SCLC); SK-BR3 (breast cancer, Her2hi); ZR-75 (breast cancer, estrogen receptor positive); OVCAR3 (ovarian cancer); HL-60 (APL); OVCAR8/Adr (ovarian cancer, MDR); CEM-Cl (ALL); Nomo-1 (AML); RPMI-8226 (MM)); Raji (lymphoma); SW-480 (colorectal cancer, metastatic); SW-620 (colorectal cancer); and H226 (lung cancer). (Not all compounds were assayed against all cell lines.)
(§3) FIGS. 12a and 12b show illustrative plots for ATP luminescence proliferation assays for a second set of compounds of this invention, against HL-60 and 786-O cells, respectively, with an incubation period of 72 h. FIGS. 12c and 12d show the plots for ^3H thymidine proliferation assays for the same set of compounds, again against HL-60 and 786-O cells, respectively, with a 72 h incubation period. In each instance, doxorubicin was used as a comparative compound.
(§4) Table 3 provides the data for the ATP luminescence proliferation assays, with an incubation period of 48, 72, or 96 h, as noted.

HCT-15 = experiment: ATP luminescence proliferation assay, HCT-15; conditions: ATP luminescence, HCT-15, 72 h incubation; read-out: EC50 HCT-15 (72 h)
Method: as §1, §2, §4

OVCAR8/Adr = experiment: ATP luminescence proliferation assay, OVCAR8/Adr; conditions: read-out: EC50 against the OVACAR8/Adr cell line
Method: as §1, §2, §4

OVCAR3 = experiment: ATP luminescence proliferation assay, OVCAR3
Method: as §1, §2, §4

HL-60 = experiment: ATP luminescence proliferation assay, HL-60
Method: as §1, §2, §3, §4

H226 = experiment: ATP luminescence proliferation assay, H226; conditions: Homo sapiens, NCI-H226, 72 h incubation period, read-out: EC50 against the H226 cell line
Method: as §1, with “The EC50 values—the concentration at which an agent inhibits or reduces cell proliferation by 50% —were determined using PRISM™ software, version 4.0 (GraphPad Software, La Jolla, Calif., USA).” left out
as §2, with “(Not all compounds were assayed against all cell lines.)” left out

[1] = ATP luminescence, 786-O, 72 h incubation, read-out: EC50 786-O (72 h)

Q: `CC[C@H](C)[C@H](NC(=O)[C@H]1CCCCN1C)C(=O)N(C)[C@H](C[C@@H](OC(C)=O)c1nc(C(=O)N[C@@H](Cc2ccc(N)cc2)C[C@@H](C)C(=O)O)cs1)C(C)C` [Compound 84b] was tested. Which EC50 (786-O; ATP luminescence, 786-O, 48 h incubation, read-out: EC50 786-O (48 h)) did it give?
A: The EC50 was 4.1 nM.

Q: And the EC50 (HCT-15)?
A: Its EC50 is 22.8 nM.

Q: And the EC50 (OVCAR8/Adr; 48 h incubation period)?
A: Its EC50 is 47.2 nM.

Q: What about the EC50 (OVCAR3; ATP luminescence, OVCAR3, 48 h incubation, read-out: EC50 OVCAR3 (48 h)) of the same compound?
A: Its EC50 is 4.91 nM.

Q: And the EC50 (HL-60; ATP luminescence, HL-60, 48 h incubation, read-out: EC50 HL-60 (48 h))?
A: Its EC50 is 16 to 27 nM.

Q: What does the source list for `CCCN(C(=O)[C@@H](NC(=O)[C@H]1CCCCN1C)[C@@H](C)CC)[C@H](C[C@@H](OC(C)=O)c1nc(C(=O)N[C@@H](Cc2ccccc2)C(=O)OC)cs1)C(C)C` [Compound 109]?
A: EC50 (786-O; Homo sapiens, 786-0, 48 h, read-out: EC50 786-O (48 h), ATP luminescence, 786-O, 48 h incubation): 1.03 nM; EC50 (OVCAR8/Adr; Homo sapiens, OVCAR-8, 48 h incubation period): 24.9 nM; EC50 (OVCAR3; Homo sapiens, OVCAR-3, 72 h, read-out: EC50 OVCAR3 (72 h), ATP luminescence, OVCAR3, 72 h incubation): 0.202 nM; EC50 (HL-60; Homo sapiens, HL-60, 48 h, read-out: EC50 HL-60 (48 h), ATP luminescence, HL-60, 48 h incubation): 0.019 nM; EC50 (H226): 1.61 nM

Q: Which EC50 (786-O; [1]) does the source give for `CCOC(=O)C(C)C[C@H](Cc1ccc(N)cc1)NC(=O)c1csc([C@@H](C[C@H](C(C)C)N(COC(=O)CC(C)C)C(=O)[C@@H](NC(=O)[C@H]2CCCCN2C)[C@@H](C)CC)OC)n1` (stereo partly shown) [Compound 133] here?
A: Its EC50 is 4.17 nM.

Q: `CCOC(=O)C(C)C[C@H](Cc1ccc(N)cc1)NC(=O)c1csc([C@@H](C[C@H](C(C)C)N(COC)C(=O)[C@@H](NC(=O)[C@H]2CCCCN2C)[C@@H](C)CC)OC)n1` (stereo partly shown) [Compound 134] was tested. Which EC50 (786-O; [1]) did it give?
A: Its EC50 is 9.89 nM.

Q: `CCCOCN(C(=O)[C@@H](NC(=O)[C@H]1CCCCN1C)[C@@H](C)CC)[C@H](C[C@@H](OC)c1nc(C(=O)N[C@@H](Cc2ccc(N)cc2)CC(C)C(=O)OCC)cs1)C(C)C` (stereo partly shown) [Compound 135] was tested. Which EC50 (786-O; [1]) did it give?
A: The EC50 was 12.9 nM.
